Patent publication US9296734B2 (AMGEN INC., priority 2013, dated 2016)
Where two headings read alike, the source gives them in different places.

Experiments:
[1] = target: Beta Secretase enzyme (BACE) (Homo sapiens (Human), UniProt P56817); test: In vitro enzymatic BACE FRET assay; assay type: biochemical; details: read-out: BACE 1 FRET assay IC50
Outline: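 Reactions ran in 0.05 M acetate pH 4.2 with 10% DMSO final and 100 uM genapol. They were started with 50 nM peptide FRET substrate (fluorophore and quencher flanking the BACE cleavage site) and incubated one hour. Tris addition raised the pH to neutral to stop the reaction before fluorescence reading.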

[2] = system: Aβ40 in conditioned medium of cells stably expressing Amyloid Precursor Protein (APP); test: In vitro BACE cell-based assay (Aβ40 sandwich ELISA); details: Homo sapiens
Outline: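 Secreted Aβ40 was quantified by sandwich ELISA (pAb40 capture, biotinylated 6E10 detection, Europium time-resolved fluorescence). IC50 derived from percent inhibition versus concentration.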

[3] = target: Cathepsin D (Cat D) (Homo sapiens (Human), UniProt P07339); test: In vitro enzymatic Cathepsin D (Cat D) FRET assay; assay type: biochemical; details: read-out: CatD IC50
Cathepsin D (Cat D), sequence (P07339 65-412, species assumed): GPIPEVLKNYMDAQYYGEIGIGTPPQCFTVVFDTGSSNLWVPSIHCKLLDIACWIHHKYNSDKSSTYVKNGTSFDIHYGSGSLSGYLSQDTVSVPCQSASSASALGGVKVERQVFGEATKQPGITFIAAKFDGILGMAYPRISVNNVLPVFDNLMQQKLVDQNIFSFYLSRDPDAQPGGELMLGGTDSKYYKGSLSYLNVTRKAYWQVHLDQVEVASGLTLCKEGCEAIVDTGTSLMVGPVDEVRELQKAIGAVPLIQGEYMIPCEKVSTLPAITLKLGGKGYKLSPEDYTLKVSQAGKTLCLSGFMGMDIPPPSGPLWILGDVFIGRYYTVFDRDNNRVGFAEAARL
Outline: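 CHO-expressed recombinant Cat D cleaves a fluorophore/quencher FRET peptide (20 nM) in 0.05 M citrate pH 3.5, 5 mM CHAPS, 10% DMSO final, over 1 h. Tris addition neutralizes pH to stop the reaction; fluorescence read at excitation 500 nm, emission 580 nm.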

[4] = HEK293, average IC50, HEK cells, read-out: HEK cell assay IC50
[5] = HEK293, HEK cells, average, read-out: HEK cell assay IC50
[6] = HEK293, read-out: HEK cell assay IC50
[7] = average IC50, BACE enzyme assay
[8] = HEK293, average IC50, HEK cell assay, read-out: HEK cell assay IC50
[9] = average IC50, cathepsin D enzyme assay

Beta Secretase enzyme (BACE), sequence (P56817 46-501): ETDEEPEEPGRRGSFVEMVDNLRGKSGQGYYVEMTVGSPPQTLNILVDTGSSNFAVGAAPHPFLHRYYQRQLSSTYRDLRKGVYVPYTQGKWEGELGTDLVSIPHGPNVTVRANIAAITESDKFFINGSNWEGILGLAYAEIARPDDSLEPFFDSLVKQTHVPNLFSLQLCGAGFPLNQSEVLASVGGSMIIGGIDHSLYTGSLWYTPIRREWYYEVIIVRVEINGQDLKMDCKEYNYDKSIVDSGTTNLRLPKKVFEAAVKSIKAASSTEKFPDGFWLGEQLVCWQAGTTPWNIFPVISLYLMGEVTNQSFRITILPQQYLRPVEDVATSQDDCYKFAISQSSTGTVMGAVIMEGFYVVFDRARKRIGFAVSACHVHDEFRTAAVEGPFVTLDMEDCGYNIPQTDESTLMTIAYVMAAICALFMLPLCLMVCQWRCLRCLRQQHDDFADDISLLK

Row | Compound | IC50 ([1]; average) | IC50 ([3]; average) | IC50 [1, 7] | IC50 [2, 8] | IC50 [3, 9] | also measured
1 | Cc1c(C(=O)Nc2ccc(F)c([C@]3(CF)C[C@@H](C(F)(F)F)OC(N)=N3)c2)nc2ccccn12 [Example 7, N-(3-((4S,6S)-2-amino-4-(fluoromethyl)-6-(trifluoromethyl)-5,6-dihydro-4H-1,3-oxazin-4-yl)-4-fluorophenyl)-3-methylimidazo[1,2-a]pyridine-2-carboxamide] |  |  |  |  |  | IC50 ([1]; average IC50): 1520 nM; IC50 [2, 4]: 888 nM; IC50 ([3]; average IC50): > 400 µM
2 | C[C@@]1(c2cc(NC(=O)c3ccc(Cl)cn3)ccc2F)C[C@@H](C(F)(F)F)OC(N)=N1 [Example 26, N-(3-((4S,6S)-2-amino-4-methyl-6-(trifluoromethyl)-5,6-dihydro-4H-1,3-oxazin-4-yl)-4-fluorophenyl)-5-chloropicolinamide] |  |  |  |  |  | IC50 ([1]; average IC50): 12.3 nM; IC50 [2, 4]: 4.9 nM; IC50 ([3]; average IC50): > 400 µM
3 | NC1=N[C@](CF)(c2cc(N)cnc2F)C[C@@H](C(F)(F)F)O1 [Example 138, (4S,6S)-4-(5-amino-2-fluoropyridin-3-yl)-4-(fluoromethyl)-6-(trifluoromethyl)-5,6-dihydro-4H-1,3-oxazin-2-amine] |  |  |  |  |  | IC50 ([1]; average IC50): > 40000 nM; IC50 [2, 4]: > 15600 nM; IC50 ([3]; average IC50): > 400 µM
4 | COc1cnc(C(=O)Nc2cc(Cl)c(F)c([C@]3(C)C[C@@H](C(F)(F)F)OC(N)=N3)c2)cn1 [Example 208, N-(3-((4S,6S)-2-amino-4-methyl-6-(trifluoromethyl)-5,6-dihydro-4H-1,3-oxazin-4-yl)-5-chloro-4-fluorophenyl)-5-methoxypyrazine-2-carboxamide] | 12 nM | 394 µM |  |  |  | IC50 [2, 6]: 3 nM
5 | C[C@@]1(c2cc(NC(=O)c3ncc(Cl)cc3Cl)cnc2F)C[C@@H](C(F)(F)F)OC(N)=N1 [Example 68, N-(5-((4S,6S)-2-amino-4-methyl-6-(trifluoromethyl)-5,6-dihydro-4H-1,3-oxazin-4-yl)-6-fluoropyridin-3-yl)-3,5-dichloropicolinamide] |  |  |  |  |  | IC50 ([1]; average IC50): 75.1 nM; IC50 [2, 4]: 111 nM; IC50 ([3]; average IC50): > 400 µM
6 | C[C@@]1(c2cc(NC(=O)c3ccc(F)cn3)cnc2F)C[C@@H](C(F)(F)F)OC(N)=N1 [Example 64, N-(5-((4S,6S)-2-amino-4-methyl-6-(trifluoromethyl)-5,6-dihydro-4H-1,3-oxazin-4-yl)-6-fluoropyridin-3-yl)-5-fluoropicolinamide] |  |  | 206 nM | 38 nM | > 400 µM | 
7 | N#Cc1cnc(C(=O)Nc2cc(F)c(F)c([C@]3(CF)C[C@@H](C(F)(F)F)OC(N)=N3)c2)c(F)c1 [Example 234, N-(3-((4S,6S)-2-amino-4-(fluoromethyl)-6-(trifluoromethyl)-5,6-dihydro-4H-1,3-oxazin-4-yl)-4,5-difluorophenyl)-5-cyano-3-fluoropicolinamide] | 38 nM | > 400 µM |  |  |  | IC50 [2, 6]: 57 nM
8 | NC1=N[C@](CF)(c2cc(Nc3nccc4cc(C#CC5CC5)cnc34)ccc2F)C[C@@H](C(F)(F)F)O1 [Example 55, (4S,6S)-4-(5-((3-(cyclopropylethynyl)-1,7-naphthyridin-8-yl)amino)-2-fluorophenyl)-4-(fluoromethyl)-6-(trifluoromethyl)-5,6-dihydro-4H-1,3-oxazin-2-amine] |  |  | 98 nM | 1020 nM | > 400 µM | 
9 | C#CCOc1ccc(C(=O)Nc2ccc(F)c([C@]3(C)C[C@@H](C(F)(F)F)OC(N)=N3)c2)nc1 [Example 28, N-(3-((4S,6S)-2-amino-4-methyl-6-(trifluoromethyl)-5,6-dihydro-4H-1,3-oxazin-4-yl)-4-fluorophenyl)-5-(prop-2-yn-1-yloxy)picolinamide] |  |  | 17.6 nM | 9.3 nM | 666 µM | 
10 | NC1=N[C@](CF)(c2cc(Nc3nccc4cn(C(F)F)nc34)ccc2F)C[C@@H](C(F)(F)F)O1 [Example 20, (4S,6S)-4-(5-((2-(difluoromethyl)-2H-pyrazolo[3,4-c]pyridin-7-yl)amino)-2-fluorophenyl)-4-(fluoromethyl)-6-(trifluoromethyl)-5,6-dihydro-4H-1,3-oxazin-2-amine 2,2,2-trifluoroacetate] |  |  | 33000 nM |  | > 400 µM | IC50 [2, 6]: 10600 nM
11 | NC1=N[C@](CF)(c2cc(-c3cncc(-c4nnco4)c3)ccc2F)C[C@@H](C(F)(F)F)O1 [Example 118, (4S,6S)-4-(5-(5-(1,3,4-oxadiazol-2-yl)pyridin-3-yl)-2-fluorophenyl)-4-(fluoromethyl)-6-(trifluoromethyl)-5,6-dihydro-4H-1,3-oxazin-2-amine] |  |  | 8360 nM | > 15600 nM | 454 µM | 
12 | NC1=N[C@](CF)(c2cc(Oc3nccc(C(F)(F)F)c3F)ccc2F)C[C@@H](C(F)(F)F)O1 [Example 109, (4S,6S)-4-(2-fluoro-5-((3-fluoro-4-(trifluoromethyl)pyridin-2-yl)oxy)phenyl)-4-(fluoromethyl)-6-(trifluoromethyl)-5,6-dihydro-4H-1,3-oxazin-2-amine] |  |  |  |  |  | IC50 ([1]; average IC50): 9520 nM; IC50 [2, 6]: 8180 nM; IC50 ([3]; average IC50): > 400 µM
13 | N#Cc1ccc(C(=O)Nc2cccc([C@]3(CF)C[C@@H](C(F)(F)F)OC(N)=N3)c2)nc1 [Example 144, N-(3-((4S,6S)-2-amino-4-(fluoromethyl)-6-(trifluoromethyl)-5,6-dihydro-4H-1,3-oxazin-4-yl)phenyl)-5-cyanopicolinamide] |  |  |  |  |  | IC50 ([1]; average IC50): 89.2 nM; IC50 [2, 4]: 67 nM; IC50 ([3]; average IC50): 665 µM
14 | C[C@@]1(c2cc(Nc3nc4ccc(Cl)cc4o3)ccc2F)C[C@@H](C(F)(F)F)OC(N)=N1 [Example 29, N-(3-((4S,6S)-2-amino-4-methyl-6-(trifluoromethyl)-5,6-dihydro-4H-1,3-oxazin-4-yl)-4-fluorophenyl)-6-chlorobenzo[d]oxazol-2-amine] |  |  | > 40000 nM | 3010 nM | 210 µM | 
15 | NC1=N[C@](CF)(c2cc(Nc3cc(-c4ccccc4)ccn3)ccc2F)C[C@@H](C(F)(F)F)O1 [Example 115, (4S,6S)-4-(2-fluoro-5-((4-phenylpyridin-2-yl)amino)phenyl)-4-(fluoromethyl)-6-(trifluoromethyl)-5,6-dihydro-4H-1,3-oxazin-2-amine] |  |  | 7880 nM | 3160 nM | 316 µM | 

Second part, led by results:

Row | IC50 ([1]; average) | IC50 ([3]; average) | IC50 [1, 7] | IC50 [2, 8] | IC50 [3, 9] | Compound | also measured
16 | 8 nM | > 400 µM |  |  |  | C[C@@]1(c2cc(NC(=O)c3cnc(OCC(F)(F)F)cn3)cc(Cl)c2F)C[C@@H](C(F)(F)F)OC(N)=N1 [Example 214, N-(3-((4S,6S)-2-amino-4-methyl-6-(trifluoromethyl)-5,6-dihydro-4H-1,3-oxazin-4-yl)-5-chloro-4-fluorophenyl)-5-(2,2,2-trifluoroethoxy)pyrazine-2-carboxamide] | IC50 [2, 5]: 29 nM
17 | 39 nM | > 400 µM |  |  |  | C[C@@]1(c2cc(NC(=O)c3ncc(C#N)cc3F)cc(F)c2F)C[C@@H](C(F)(F)F)OC(N)=N1 [Example 205, N-(3-((4S,6S)-2-amino-4-methyl-6-(trifluoromethyl)-5,6-dihydro-4H-1,3-oxazin-4-yl)-4,5-difluorophenyl)-5-cyano-3-fluoropicolinamide] | IC50 [2, 5]: 10 nM
18 |  |  | 26 nM | 87 nM | 2750 µM | NC1=N[C@](CF)(c2cc(NC(=O)c3ccc(Cl)cn3)cc(F)c2F)C[C@@H](C(F)(F)F)O1 [Example 152, N-(3-((4S,6S)-2-amino-4-(fluoromethyl)-6-(trifluoromethyl)-5,6-dihydro-4H-1,3-oxazin-4-yl)-4,5-difluorophenyl)-5-chloropicolinamide] | 
19 | 33 nM | 1180 µM |  |  |  | COc1cnc(C(=O)Nc2cc(F)c(F)c([C@]3(C)C[C@@H](C(F)(F)F)OC(N)=N3)c2)c(F)c1 [Example 239, N-(3-((4S,6S)-2-amino-4-methyl-6-(trifluoromethyl)-5,6-dihydro-4H-1,3-oxazin-4-yl)-4,5-difluorophenyl)-3-fluoro-5-methoxypicolinamide] | IC50 [2, 5]: 12 nM
20 | 16 nM | 568 µM |  |  |  | Cc1cc(C#N)cnc1C(=O)Nc1cc(F)c(F)c([C@]2(CF)C[C@@H](C(F)(F)F)OC(N)=N2)c1 [Example 232, N-(3-((4S,6S)-2-amino-4-(fluoromethyl)-6-(trifluoromethyl)-5,6-dihydro-4H-1,3-oxazin-4-yl)-4,5-difluorophenyl)-5-cyano-3-methylpicolinamide] | IC50 [2, 5]: 55 nM
21 | 8 nM | 131 µM |  |  |  | C[C@@]1(c2cc(NC(=O)c3ccc(C#N)cn3)cc(F)c2Cl)C[C@@H](C(F)(F)F)OC(N)=N1 [Example 238, N-(3-((4S,6S)-2-amino-4-methyl-6-(trifluoromethyl)-5,6-dihydro-4H-1,3-oxazin-4-yl)-4-chloro-5-fluorophenyl)-5-cyanopicolinamide] | IC50 [2, 5]: 6 nM
22 |  |  | 9.5 nM | 14 nM | 733 µM | Cc1cc(Cl)cnc1C(=O)Nc1cc(F)c(F)c([C@]2(C)C[C@@H](C(F)(F)F)OC(N)=N2)c1 [Example 170, N-(3-((4S,6S)-2-amino-4-methyl-6-(trifluoromethyl)-5,6-dihydro-4H-1,3-oxazin-4-yl)-4,5-difluorophenyl)-5-chloro-3-methylpicolinamide] | 
